# Molecular target: Glutamyl aminopeptidase (Oryctolagus cuniculus)
# Experiment: Inhibition of aminopeptidase A (APA)
row,Compound,Ki
1,NC(CS)CC(C(=O)O)C(=O)O (stereo not given) [2-(2-Amino-3-mercapto-propyl)-malonic acid],3500 nM
2,NC(CS)CCC(C(=O)O)C(=O)O (stereo not given) [2-(3-Amino-4-mercapto-butyl)-malonic acid],280 nM
3,NC(CS)CCCP(=O)(O)O (stereo not given) [(4-Amino-5-mercapto-pentyl)-phosphonic acid],510 nM

# The next lines start with the values.
row,Ki,Compound
1,1600 nM,NC(CS)CCCCC(=O)O (stereo not given) [6-Amino-7-mercapto-heptanoic acid]
2,370 nM,N[C@H](CS)CCCS(=O)(=O)O [Sodium; (S)-4-amino-5-mercapto-pentane-1-sulfonate]

# — BindingDB's records for doi:10.1021/jm00044a016 (University of Paris, 1994)
